The values below come from patent US7498445B2, “Thiazole-based nitric oxide donors capable of releasing two or more nitric oxide molecules and uses thereof” (priority 2004, dated 2009).

Experiment [1] concerns isolated rat aorta. The experiment can be described thus: In vitro vasorelaxation of epinephrine-contracted rat aortic rings (CCRC). It counts as cell-based. To be noted: isolated rat aorta pre-treated in vitro with 1 μM epinephrine; for vasorelaxation effect as compared with glyceryltrinitrate: in words. The source says:
Male Sprague Dawley rats were anaesthetized using intraperitoneal injection of ketamine and xylazine (50 and 10 milligram per kilogram, respectively) and the thoracic aorta, the large upper portion of the descending aorta, starting at the caudal border of the chest bone, was removed thereafter, while carefully removing the paraadventetial tissue surrounding the vessel. Aortae were cut into rings of 4-5 millimeters and mounted onto the tissue path. The path buffer (Krebs-bicrbonate) was constantly gassed with carbogen and maintained at 37° C. The rings were preloaded under 2 g tension and equilibrated for 90 minutes, while refreshing the buffer every 15 minutes. After stabilization, the rings were contracted with epinephrine (1 μM). Cumulative Concentration—Response Curves (CCRC) were measured for the vasorelaxing effect induced by adding various concentrations, ranging from 10^−10 M to 10^−5 M of Pet-2, Pet-3, Pet-7, Pet-8, Pet-12, Pet-24, Pet-43, Pet-59, Pet-147, Pet-152 and Pet-154, and glyceryltrinitrate (GTN), according to the procedure described in Feelich et al., Molecular Pharmacology, 56:243-253 (1999), The vehicle, which was used for this experiment was water:ethanol:propyleneglycol at proportional ratio of 1:1:1.
The vasorelaxing effect of the thiazole-derived NO-donors according to the present invention was measured on slices of thoracic aorta of rats contracted with epinephrine, as described hereinabove.

For experiment [2], the system named is c-GMP in slices of thoracic aorta of rats. The experiment can be described thus: Cyclic-GMP measurement in aortic rat tissue (radioimmunoassay). It counts as cell-based. To be noted: isolated rat aorta; FIGS. 25, 27, 33; in words. The protocol:
GTN (10^−6 M) was added to the chamber and, 1 minute after exposure to the drug, rings (usually 3-5) were taken, wrapped with aluminum foil and immediately frozen in liquid nitrogen for storage. Control sample group was treated with the vehicle solution only. At the time of analysis, rings were thawed, blotted over a dry gauzed and weighted. A known weight of tissue was homogenized in 2 ml ice-cold modified Hank's balanced salt solution containing (in gram/liter) NaCl 8; KCl 0.4; glucose 1; KH2PO4 0.06; Na2HPO4 0.047; Phenol red 0.017 and further containing 25 mM EDTA (disodium salt). The homogenate was centrifuged at 4000 g (force units) for 10 minutes at 2-4° C. and the supernatant was thereafter transferred into fresh pre-cooled test tube containing 1 ml of acetonitrile. The tubes were vortex mixed for a few seconds and subsequently centrifuged at 4000 g for 5 minutes at 2-4° C., to remove the precipitated protein. Each supernatant was transferred into a clean test tube and evaporated to dryness under a stream of nitrogen at 55° C. The dry residue was reconstituted with 10 volumes of Tris-EDTA buffer pH 7.5 (0.05 M Tris containing 4 mM EDTA). Aliquots of 100 μl of the reconstituted solution in duplicate were used for c-GMP measurements using Amersham RIA kit, as is described in Haj-Yehia & Benet [Pharmacology, 1995, 273, 1, pp. 94-100]. Standard curves were plotted with six concentrations (0, 0.5, 1, 2, 4 and 8 pmoles of c-GMP per tube).
The NO-tolerance effect of GTN and NO-donor compounds according to the present invention was measured by following the production of c-GMP in slices of thoracic aorta of rats. Thus, the production of c-GMP was measured as described in the methods section above for the reference NO-donor compound GTN, and for the NO-donors of the present invention Pet-2, Pet-3, Pet-7, Pet-8, Pet-10, Pet-12, Pet-24, Pet-59, Pet-147, Pet-149, Pet-152, Pet-154 and Pet-155.

Experiment [3] relates to isolated rat aorta. The experiment in a line: In vitro induction of tolerance and cross-tolerance: vasorelaxation of pre-exposed rat aortic rings. It counts as cell-based. To be noted: in words; for tolerance induction in vitro: rings pre-treated with epinephrine and then with the same compound (0.44 mM) versus control. As to the method: Aortic rings were prepared as described hereinabove, and were exposed to 0.44 mM GTN (vehicle was water:ethanol:propyleneglycol at proportional ratio of 1:1:1) for 1 hour before CCRC construction, to thereby induce tolerance to nitroglycerine. At the end of the tolerance induction period, rings were thrice washed with the path buffer (Krebs-bicrbonate) every 15 minutes for the following hour and then CCRC for vasorelaxation on GTN-induced tolerance rings were constructed for GTN (pretreated versus untreated rings, FIG. 15), in order to verify the ability to induce and measure GTN tolerance induction in vitro Attempted induction of tolerance to the NO-donating compounds of the present invention was performed under the same conditions as for GTN. Thus, in an exemplary experiment, rings were exposed to 0.44 mM solution of Pet-3 in the attempt to induce tolerance for Pet-3. CCRC were then measured for the vasorelaxing effect of Pet-3 on a group of rings which were pre-exposed to Pet-3 as to induce tolerance to Pet-3, and for an untreated control group. The above protocol was repeated with Pet-2, Pet-7, Pet-8, Pet-12, Pet-24, Pet-43, Pet-149 and Pet-152.
Cross-tolerance studies were conducted using the same technique described above for measuring vasorelaxation of aortic rings from rats. Two groups of aortic rings samples were pre-treated with GTN, then one group was measured for vasorelaxation by GTN and the second group for vasorelaxation by Pet-12, an exemplary NO-donor according to the present invention. For the opposite cross-tolerance studies, two groups of aortic rings samples were pre-treated with Pet-12, then one group was measured for vasorelaxation by GTN and the second group for vasorelaxation by Pet-12.

The subject of experiment [4] is cyclic-GMP in isolated aorta of rats pre-treated in vivo. The experiment can be described thus: Induction of in vivo nitrate tolerance: cGMP in aorta of rats infused for 16 hours. Also on record: species or system rat. The note with it: rats infused 200 μg/hour for 16 hours, aorta then exposed to 1 μM; in words. As to the method:
For c-GMP levels and tolerance development, the rat's thoracic aorta was isolated after exposure to the tested compound in vivo, and measured as described above in the in vitro assays.
Male Sprague Dawley rats (220 to 250 grams) were housed under constant temperature and humidity conditions. Light was maintained at a 12/12 light dark cycle. Except for 12 hours before the experiment, when food fasting was initiated, all rats had free access to standard rat pellet diet and tap water. The animals were anesthetized by intraperitoneal injection of ketamine and xylazine combination (50 and 10 milligram per kilogram, respectively). […] The catheters were filled with normal saline solution containing 1000 IU/ml of heparin and plugged with a metal pin. Catheters were externalized to the back of the neck region and secured by a polyester felt disk.
After implantation, the rats were individually housed until they regained their preoperative weight and appeared healthy (3 to 4 days post-operation). At this time point (day 0), an osmotic mini-pump (Alza Corp., Palo Alto, Calif.) delivering constant volume (10 μl/hour) of vehicle or drug was connected to one of the intravenous catheters.
For inducing tolerance to the tested NO-donor according to the present invention, the animals received 200 μg/hour of the tested compound for 16 hours (short-term-induced tolerance). […]

Entries after “also recorded” stand apart in the source; their conditions may differ.

Consider `Cc1nc(NC(=O)[C@@H](C)c2ccc(CC(C)C)cc2)sc1CCO[N+](=O)[O-]` (stereo in doubt) [Pet-152, 2-(4-Isobutyl-phenyl)-N-[4-methyl-5-(2-nitrooxy-ethyl)-thiazol-2-yl]-propionamide], for which the “vasorelaxation effect as compared with glyceryltrinitrate” value with isolated rat aorta [1] is given as “superior vasorelaxation effect”. For the same molecule, the “levels of cGMP as compared with GTN” value in experiment [2] was “increased levels of cGMP”.
For the molecule `Cc1nc(C)c(CCO[N+](=O)[O-])s1` [Pet-3, 2,4-Dimethyl-5-(2-nitrooxy-ethyl)-thiazole], the “vasorelaxation effect as compared with glyceryltrinitrate” value with isolated rat aorta [1] is on record as “superior vasorelaxation effect”. In addition, the “tolerance induction in vitro” value in the experiment with isolated rat aorta [3] is given as “absence of tolerance induction”. For the same molecule, the “levels of cGMP as compared with GTN” value in experiment [2] is “increased levels of cGMP”.
Take `Cc1nc(N(C)C)sc1CCO[N+](=O)[O-]` [Pet-7, Dimethyl-[4-methyl-5-(2-nitrooxy-ethyl)-thiazol-2-yl]-amine]: in the experiment on isolated rat aorta [1], the “vasorelaxation effect, fold higher than glyceryltrinitrate” value is 10 fold and the “vasorelaxation effect as compared with glyceryltrinitrate” value is “superior”. For the same molecule, the “tolerance induction in vitro” value in the experiment with isolated rat aorta [3] is listed as “absence of tolerance induction”. Moreover, the “levels of cGMP as compared with GTN” value in experiment [2] was “increased levels of cGMP”.
Turning to `Cc1nc(-c2ccccc2)sc1CCO[N+](=O)[O-]` [Pet-8, 4-Methyl-5-(2-nitrooxy-ethyl)-2-phenyl-thiazole], the “vasorelaxation effect as compared with glyceryltrinitrate” value with isolated rat aorta [1] was “superior vasorelaxation effect”. Besides, the “levels of cGMP as compared with GTN” value in experiment [2] is on record as “increased levels of cGMP”.
As for `Cc1nc(N)sc1CCO[N+](=O)[O-]` [Pet-10, 4-methyl-5-(2-nitrooxy-ethyl)-thiazole-2-ylamine], the “levels of cGMP as compared with GTN” value in experiment [2] is on record as “increased levels of cGMP”.
`Cc1nc(-c2cccnc2)sc1CCO[N+](=O)[O-]` [Pet-12, 3-[4-Methyl-5-(2-nitrooxy-ethyl)-thiazole-2-yl]-pyridine]: the “cross-tolerance: vasorelaxation in rings pre-treated with GTN” value with isolated rat aorta [3] (rat aortic rings pre-treated with epinephrine and then with GTN) was “absence of tolerance induction effect; also recorded: no effect”. In the experiment with isolated rat aorta [3] (rat aortic rings pre-treated with epinephrine and then with Pet-12), the “cross-tolerance: vasorelaxation in rings pre-treated with Pet-12” value is recorded as “absence of tolerance induction effect; also recorded: does not evoke tolerance to itself not to GTN”. Moreover, the “tolerance induction in vitro” value with isolated rat aorta [3] is given as “absence of tolerance induction”. Besides, the “level of cGMP following a repeated treatment in vivo (tolerance induction)” value in experiment [4] is “absence of tolerance induction; also recorded: lack of tolerance induction”.
For the molecule `CNc1cncc(-c2nc(C)c(CCO[N+](=O)[O-])s2)n1` [Pet-24, Methyl-{6-[4-methyl-5-(2-nitrooxy-ethyl)-thiazol-2-yl]-pyrazin-2-yl}-amine], in the experiment on isolated rat aorta [3], the “tolerance induction in vitro” value is recorded as “absence of tolerance induction”. For the same molecule, in experiment [2], the “levels of cGMP as compared with GTN” value is reported as “increased levels of cGMP”.
On to `Cc1nc(Nc2nc(C)c(CCO[N+](=O)[O-])s2)sc1CCO[N+](=O)[O-]` [Pet-43, Bis-[4-methyl-5-(2-nitrooxy-ethyl)-thiazol-2-yl]-amine], for which the “vasorelaxation effect as compared with glyceryltrinitrate” value in the experiment on isolated rat aorta [1] is listed as “superior vasorelaxation effect”. In the experiment with isolated rat aorta [3], the “tolerance induction in vitro” value was “absence of tolerance induction”.
As to `Cc1nc(-c2ccc(C(F)(F)F)cc2)sc1CCO[N+](=O)[O-]` [Pet-59, 4-Methyl-5-(2-nitrooxy-ethyl)-2-(4-trifluoromethyl-phenyl)-thiazole], the “vasorelaxation effect as compared with glyceryltrinitrate” value in the experiment with isolated rat aorta [1] is recorded as “superior vasorelaxation effect”. For the same molecule, in experiment [2], the “levels of cGMP as compared with GTN” value is recorded as “increased levels of cGMP”.
For the molecule `CCNc1nc(C)c(CCO[N+](=O)[O-])s1` [Pet-147, Ethyl-[4-methyl-5-(2-nitrooxy-ethyl)-thiazol-2-yl]-amine], in experiment [2], the “levels of cGMP as compared with GTN” value is “increased levels of cGMP”.
On to `Cc1nc(Nc2cccc3ccccc23)sc1CCO[N+](=O)[O-]` [Pet-149, [4-Methyl-5-(2-nitrooxy-ethyl)-thiazol-2-yl]-naphthalen-1-yl-amine], for which, in the experiment on isolated rat aorta [1], the “vasorelaxation effect as compared with glyceryltrinitrate” value is listed as “superior vasorelaxation effect”. The “tolerance induction in vitro” value with isolated rat aorta [3] is “absence of tolerance induction”. Further, in experiment [2], the “levels of cGMP as compared with GTN” value is given as “increased levels of cGMP”.
As to `Cc1nc(NC(=O)c2cccnc2)sc1CCO[N+](=O)[O-]` [Pet-154, N-[4-methyl-5-(2-nitrooxy-ethyl)-thiazol-2-yl]-nicotinamide], in experiment [2], the “levels of cGMP as compared with GTN” value is listed as “increased levels of cGMP”.
As for `C=CCNc1nc(C)c(CCO[N+](=O)[O-])s1` [Pet-155, allyl-[4-methyl-5-(2-nitrooxy-ethyl)-thiazol-2-yl]-amine], in the experiment on isolated rat aorta [1], the “vasorelaxation effect as compared with glyceryltrinitrate” value is on record as “superior vasorelaxation effect”. In addition, the “levels of cGMP as compared with GTN” value in experiment [2] is “increased levels of cGMP”.
